Test results published in ChEMBL document CHEMBL1150977, “A quantitative analysis of kinase inhibitor selectivity” (Nat Biotechnol, 2008).

Columns and labels:
[1] = target: Vascular endothelial growth factor receptor 2 (Homo sapiens, UniProt P35968)
[2] = target: Serine/threonine-protein kinase pim-1 (Homo sapiens, UniProt P11309)
Ephrin type-B receptor 4 = target: T1, Ephrin type-B receptor 4 (Homo sapiens, UniProt P54760)
T1 sequence (P54760 whole entry): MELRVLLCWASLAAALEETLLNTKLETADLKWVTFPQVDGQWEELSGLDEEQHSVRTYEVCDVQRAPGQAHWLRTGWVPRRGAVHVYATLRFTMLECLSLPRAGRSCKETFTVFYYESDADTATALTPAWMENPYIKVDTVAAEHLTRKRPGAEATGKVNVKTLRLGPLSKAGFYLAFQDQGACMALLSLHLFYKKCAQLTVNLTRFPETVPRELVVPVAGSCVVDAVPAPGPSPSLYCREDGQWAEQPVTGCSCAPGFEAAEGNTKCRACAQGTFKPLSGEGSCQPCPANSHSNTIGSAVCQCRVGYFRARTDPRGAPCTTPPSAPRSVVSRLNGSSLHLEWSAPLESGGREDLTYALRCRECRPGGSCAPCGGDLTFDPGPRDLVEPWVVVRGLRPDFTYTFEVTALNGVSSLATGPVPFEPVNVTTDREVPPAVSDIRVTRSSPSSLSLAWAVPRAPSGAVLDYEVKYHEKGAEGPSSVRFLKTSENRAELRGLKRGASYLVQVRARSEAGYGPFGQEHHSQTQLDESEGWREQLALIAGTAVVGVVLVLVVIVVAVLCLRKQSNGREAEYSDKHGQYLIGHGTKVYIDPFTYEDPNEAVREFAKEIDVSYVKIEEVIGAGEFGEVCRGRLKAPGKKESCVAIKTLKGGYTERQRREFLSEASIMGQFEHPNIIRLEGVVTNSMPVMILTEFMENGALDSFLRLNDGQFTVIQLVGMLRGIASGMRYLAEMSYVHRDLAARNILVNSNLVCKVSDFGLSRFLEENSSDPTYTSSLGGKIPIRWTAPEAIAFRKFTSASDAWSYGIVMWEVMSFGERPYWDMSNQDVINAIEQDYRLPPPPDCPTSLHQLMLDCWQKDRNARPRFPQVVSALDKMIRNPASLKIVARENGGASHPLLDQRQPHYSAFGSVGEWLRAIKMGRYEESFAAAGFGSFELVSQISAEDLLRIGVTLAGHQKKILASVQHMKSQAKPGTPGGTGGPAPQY

[3] = target: T2, Bone morphogenetic protein receptor type-2 (Homo sapiens, UniProt Q13873)
T2 sequence (Q13873 whole entry): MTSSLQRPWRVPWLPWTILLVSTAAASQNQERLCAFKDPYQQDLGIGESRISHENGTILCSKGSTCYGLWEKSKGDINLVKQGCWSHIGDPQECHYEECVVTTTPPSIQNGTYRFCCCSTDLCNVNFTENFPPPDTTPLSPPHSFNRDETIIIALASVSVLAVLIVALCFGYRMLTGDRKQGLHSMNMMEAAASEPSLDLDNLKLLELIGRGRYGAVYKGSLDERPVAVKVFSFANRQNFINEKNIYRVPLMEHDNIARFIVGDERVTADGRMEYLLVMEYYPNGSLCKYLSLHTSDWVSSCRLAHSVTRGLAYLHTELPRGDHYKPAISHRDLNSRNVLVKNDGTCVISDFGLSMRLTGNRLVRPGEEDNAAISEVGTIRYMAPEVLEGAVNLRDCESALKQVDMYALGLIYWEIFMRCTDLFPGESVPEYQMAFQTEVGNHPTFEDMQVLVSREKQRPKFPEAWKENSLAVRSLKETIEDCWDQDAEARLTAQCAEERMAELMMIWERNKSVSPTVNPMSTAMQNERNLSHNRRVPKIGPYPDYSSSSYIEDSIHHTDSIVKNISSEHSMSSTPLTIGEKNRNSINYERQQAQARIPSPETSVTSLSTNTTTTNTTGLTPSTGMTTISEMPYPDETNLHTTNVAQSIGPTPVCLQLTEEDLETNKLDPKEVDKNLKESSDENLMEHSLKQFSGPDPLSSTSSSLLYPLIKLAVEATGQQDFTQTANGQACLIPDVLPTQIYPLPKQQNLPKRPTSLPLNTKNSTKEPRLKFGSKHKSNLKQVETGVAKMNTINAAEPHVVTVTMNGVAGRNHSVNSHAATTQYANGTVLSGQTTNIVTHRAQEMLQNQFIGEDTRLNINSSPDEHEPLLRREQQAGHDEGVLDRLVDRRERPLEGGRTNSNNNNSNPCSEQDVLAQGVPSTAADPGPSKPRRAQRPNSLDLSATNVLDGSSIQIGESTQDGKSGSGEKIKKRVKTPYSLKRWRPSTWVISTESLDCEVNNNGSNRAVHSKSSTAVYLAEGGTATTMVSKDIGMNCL

LIM domain kinase 1 = LIM domain kinase 1 (Homo sapiens, UniProt P53667)
[4] = target: Proto-oncogene tyrosine-protein kinase Src (Homo sapiens, UniProt P12931)
[5] = target: Calcium/calmodulin-dependent protein kinase type II subunit alpha (Homo sapiens, UniProt Q9UQM7)
[6] = target: Mitogen-activated protein kinase 11 (Homo sapiens, UniProt Q15759)
[7] = target: RAF proto-oncogene serine/threonine-protein kinase (Homo sapiens, UniProt P04049)
[8] = target: Activin receptor type-1-like (Homo sapiens, UniProt P37023)
[9] = target: T3, Serine/threonine-protein kinase NLK (Homo sapiens, UniProt Q9UBE8)
T3 sequence (Q9UBE8 whole entry): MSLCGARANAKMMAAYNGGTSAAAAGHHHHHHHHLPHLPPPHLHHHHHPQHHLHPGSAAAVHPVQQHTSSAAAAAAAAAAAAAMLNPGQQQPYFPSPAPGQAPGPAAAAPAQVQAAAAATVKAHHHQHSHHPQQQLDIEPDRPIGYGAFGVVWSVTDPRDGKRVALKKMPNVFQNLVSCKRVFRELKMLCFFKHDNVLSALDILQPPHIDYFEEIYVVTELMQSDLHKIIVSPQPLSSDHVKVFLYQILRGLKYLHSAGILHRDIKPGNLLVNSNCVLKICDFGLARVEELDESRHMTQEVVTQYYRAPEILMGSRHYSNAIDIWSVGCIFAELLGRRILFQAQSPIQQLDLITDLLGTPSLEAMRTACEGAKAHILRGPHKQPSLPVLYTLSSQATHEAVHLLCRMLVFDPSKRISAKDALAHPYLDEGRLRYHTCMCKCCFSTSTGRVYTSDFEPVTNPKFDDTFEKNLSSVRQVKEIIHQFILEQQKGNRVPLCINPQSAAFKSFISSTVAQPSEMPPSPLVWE

| SMILES | Kd [1] [µM] | Kd [2] [µM] | Kd (Ephrin type-B receptor 4) [µM] | Kd [3] [µM] | Kd (LIM domain kinase 1) [µM] | Kd [4] [µM] | Kd [5] [µM] | Kd [6] [µM] | Kd [7] [µM] | Kd [8] [µM] | Kd [9] [µM] |
| --- | --- | --- | --- | --- | --- | --- | --- | --- | --- | --- | --- |
| COCC(=O)NC/C=C/c1ccc2ncnc(Nc3ccc(Oc4ccc(C)nc4)c(C)c3)c2c1 [CP-724714] | > 10 | > 10 | > 10 | > 10 | > 10 | > 10 | > 10 | > 10 | > 10 | > 10 | > 10 |
| NC(=O)c1ccc(-c2nc(-c3ccc4c(c3)OCO4)c(-c3ccccn3)[nH]2)cc1 [SB-431542] | > 10 | > 10 | > 10 | > 10 | > 10 | > 10 | > 10 | > 10 | > 10 | > 10 | > 10 |
| Nc1nc(Nc2ccc(S(N)(=O)=O)cc2)nn1C(=O)c1c(F)cccc1F [JNJ-7706621] | – | – | > 10 | – | – | > 10 | – | > 10 | > 10 | – | > 10 |
| CCOc1cc2ncc(C#N)c(Nc3ccc(F)c(Cl)c3)c2cc1NC(=O)/C=C/CN(C)C [PELITINIB] | > 10 | > 10 | 2.8 | > 10 | > 10 | – | > 10 | > 10 | > 10 | > 10 | > 10 |
| CCN1CCN(Cc2ccc(NC(=O)Nc3ccc(Oc4cc(NC)ncn4)cc3)cc2C(F)(F)F)CC1 [AST-487] | – | – | – | – | > 10 | – | – | – | – | – | – |
| Oc1ccc(-c2nc(-c3ccncc3)c(-c3ccc(F)cc3)[nH]2)cc1 [SB-202190] | > 10 | > 10 | > 10 | > 10 | > 10 | > 10 | > 10 | – | – | > 10 | 0.028 |
